Laboratory results: article PMC9917282, “Crystal Structure of Inhibitor-Bound Bacterial Oligopeptidase B in the Closed State: Similarity and Difference between Protozoan and Bacterial Enzymes” (International Journal of Molecular Sciences, 2023)

Target: T1, SpOpB (PSP) (Serratia proteamaculans, UniProt B3VI58)
T1 construct: gene opdB; plasmid pET-6HisOpB, expressed in E. coli BL21(DE3)RIPL; monomer in asymmetric unit
T1 sequence (B3VI58 2-677): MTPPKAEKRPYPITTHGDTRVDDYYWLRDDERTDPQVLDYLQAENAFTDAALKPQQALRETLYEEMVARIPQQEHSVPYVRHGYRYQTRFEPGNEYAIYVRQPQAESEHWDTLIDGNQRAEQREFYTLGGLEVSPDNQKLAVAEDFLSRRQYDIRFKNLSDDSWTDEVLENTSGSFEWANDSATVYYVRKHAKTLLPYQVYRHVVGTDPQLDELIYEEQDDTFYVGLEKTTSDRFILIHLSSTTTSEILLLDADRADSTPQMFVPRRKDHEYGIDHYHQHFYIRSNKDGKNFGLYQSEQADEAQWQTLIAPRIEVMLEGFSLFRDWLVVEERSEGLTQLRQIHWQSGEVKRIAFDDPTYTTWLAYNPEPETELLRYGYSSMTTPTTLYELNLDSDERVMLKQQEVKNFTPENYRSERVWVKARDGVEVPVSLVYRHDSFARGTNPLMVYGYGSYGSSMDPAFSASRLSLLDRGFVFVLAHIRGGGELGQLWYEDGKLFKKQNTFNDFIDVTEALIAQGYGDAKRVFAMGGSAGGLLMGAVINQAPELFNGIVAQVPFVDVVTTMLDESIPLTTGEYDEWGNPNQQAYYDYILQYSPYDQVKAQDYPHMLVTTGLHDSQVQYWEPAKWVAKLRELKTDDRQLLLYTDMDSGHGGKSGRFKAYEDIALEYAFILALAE
Test: Kitz-Wilson inactivation kinetics, residual BAPNA hydrolysis at […] nm; crystal structure of complex at […] A
Assay type: biochemical
Details: covalent; irreversible alkylation, Ki of the initial enzyme-inhibitor complex; bound to S532 and H652; 0.1 M Tris-HCl pH 8.0, 25 °C; 70 nM enzyme, 50–260 µM TCK

With `Cc1ccc(S(=O)(=O)N[C@@H](CCCCN)C(=O)CCl)cc1` [TCK] the KI (inactivation) was 280 ± 60 µM.
